Source: patent publication US10752640B2, “Compounds active towards bromodomains” (NUEVOLUTION A/S, priority 2014, dated 2020)

Target: BRD4 protein (Homo sapiens, UniProt O60885)
Experiment: FRET assay, half maximal inhibitory concentration (IC50)
Assay type: binding
Details: BRD4 protein 50 nM, Biotin-H4KAc4 peptide 12.5 nM; A Further List of Classification
Procedure, shortened: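 Acetylated histone H4 peptide binding (biotin-H4KAc4, 12.5 nM final) to BRD4 (50 nM final) detected by TR-FRET between streptavidin cryptate (2.4 nM) and GST-XL665 antibody (10 nM) in KF/BSA. Buffer: HEPES pH 7.5, NaCl, CHAPS. Compound dilutions from 50 μM in 12.5% DMSO were preincubated with protein for 30 min. Variable-slope IC50.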

| IC50 | SMILES |
| --- | --- |
| 1 to 10 µM | Cc1cc(O)nc2ccc(NC(=O)c3ccccc3N3CCN(C)CC3)cc12 [S10, N-(2-hydroxy-4-methyl-6-quinolyl)-2-(4-methylpiperazin-1-yl)benzamide] |
| 1 to 10 µM | Cc1cc(O)nc2ccc(NC(=O)c3ccccc3N3CCN(c4cnccn4)CC3)cc12 [S11, N-(2-hydroxy-4-methyl-6-quinolyl)-2-(4-pyrazin-2-ylpiperazin-1-yl)benzamide] |
| < 0.2 µM | Cc1cc(O)nc2ccc(NC(=O)c3cc(S(N)(=O)=O)ccc3N3CCOCC3)cc12 [S12, N-(2-hydroxy-4-methyl-6-quinolyl)-2-morpholino-5-sulfamoyl-benzamide] |
| 1 to 10 µM | CN1C(=O)CCc2cc(NC(=O)c3cc(S(N)(=O)=O)ccc3N3CCOCC3)ccc21 [S13, N-(1-methyl-2-oxo-3,4-dihydroquinolin-6-yl)-2-morpholino-5-sulfamoyl-benzamide] |
| 0.2 to 0.5 µM | Cc1cc(O)nc2ccc(NC(=O)c3cc(N4C(=O)CCC4=O)ccc3N3CCOCC3)cc12 [S14, 5-(2,5-dioxopyrrolidin-1-yl)-N-(2-hydroxy-4-methyl-6-quinolyl)-2-morpholino-benzamide] |
| 0.5 to 1 µM | Cc1cc(O)nc2ccc(NC(=O)c3cc(NS(=O)(=O)c4ccccc4)ccc3N3CCN(C)CC3)cc12 [S15, 5-(benzenesulfonamido)-N-(2-hydroxy-4-methyl-6-quinolyl)-2-(4-methylpiperazin-1-yl)benzamide] |
| 1 to 10 µM | CCS(=O)(=O)Nc1ccc(N2CCN(C)CC2)c(C(=O)Nc2ccc3nc(O)cc(C)c3c2)c1 [S16, 5-(ethylsulfonylamino)-N-(2-hydroxy-4-methyl-6-quinolyl)-2-(4-methylpiperazin-1-yl)benzamide] |
| < 0.2 µM | Cc1cc(O)nc2ccc(NC(=O)c3cc([N+](=O)[O-])ccc3N3CCOCC3)cc12 [S17, N-(2-hydroxy-4-methyl-6-quinolyl)-2-morpholino-5-nitro-benzamide] |
| < 0.2 µM | Cc1cc(O)nc2ccc(NC(=O)c3cc(S(=O)(=O)N4CCCCC4)ccc3N3CCOCC3)cc12 [S19, N-(2-hydroxy-4-methyl-6-quinolyl)-2-morpholino-5-(1-piperidylsulfonyl)benzamide] |
| < 0.2 µM | Cc1cc(O)nc2ccc(NC(=O)c3cc(S(=O)(=O)N4CCOCC4)ccc3N3CCOCC3)cc12 [S20, N-(2-hydroxy-4-methyl-6-quinolyl)-2-morpholino-5-morpholinosulfonyl-benzamide] |
| 0.5 to 1 µM | Cc1cc(O)nc2ccc(NC(=O)c3cccc(CN4CCNCC4)c3)cc12 [S21, N-(2-hydroxy-4-methyl-6-quinolyl)-3-(piperazin-1-ylmethyl)benzamide] |
| 0.2 to 0.5 µM | Cc1cc(O)nc2ccc(NC(=O)c3cc([N+](=O)[O-])ccc3N(C)C)cc12 [S22, 2-(dimethylamino)-N-(2-hydroxy-4-methyl-6-quinolyl)-5-nitro-benzamide] |
| > 10 µM | CNS(=O)(=O)c1cccc(C(=O)Nc2ccc3nc(O)cc(C)c3c2)c1 [S23, N-(2-hydroxy-4-methyl-6-quinolyl)-3-(methylsulfamoyl)benzamide] |
| > 10 µM | Cc1cc(O)nc2ccc(NC(=O)c3cccc(CN4CCCC4=O)c3)cc12 [S24, N-(2-hydroxy-4-methyl-6-quinolyl)-3-[(2-oxopyrrolidin-1-yl)methyl]benzamide, reference compound] |
| < 0.2 µM | Cc1cc(O)nc2ccc(NC(=O)c3cc([N+](=O)[O-])ccc3N3CCCC3)cc12 [S25, N-(2-hydroxy-4-methyl-6-quinolyl)-5-nitro-2-pyrrolidin-1-yl-benzamide] |
| > 10 µM | Cc1cc(O)nc2ccc(NC(=O)c3cccc(S(=O)(=O)NCC(N)=O)c3)cc12 [S26, 3-[(2-amino-2-oxo-ethyl)sulfamoyl]-N-(2-hydroxy-4-methyl-6-quinolyl)benzamide] |
| < 0.2 µM | Cc1cc(O)nc2ccc(NC(=O)c3cc(S(=O)(=O)N(C)C)ccc3N3CCCC3)cc12 [S27, 5-(dimethylsulfamoyl)-N-(2-hydroxy-4-methyl-6-quinolyl)-2-pyrrolidin-1-yl-benzamide] |
| 0.2 to 0.5 µM | Cc1cc(O)nc2ccc(NC(=O)c3cc(N4CCOCC4)ccc3NS(C)(=O)=O)cc12 [S28, N-(2-hydroxy-4-methyl-6-quinolyl)-2-(methanesulfonamido)-5-morpholino-benzamide] |
| > 10 µM | Cc1cc(O)nc2ccc(NC(=O)c3cccc(N4CCCC4)c3)cc12 [S29, N-(2-hydroxy-4-methyl-6-quinolyl)-3-pyrrolidin-1-yl-benzamide, reference compound] |
| > 10 µM | Cc1cc(O)nc2ccc(NC(=O)c3ccc(N)c([N+](=O)[O-])c3)cc12 [S30, 4-amino-N-(2-hydroxy-4-methyl-6-quinolyl)-3-nitro-benzamide, reference compound] |
| 1 to 10 µM | NS(=O)(=O)c1ccc(N2CCOCC2)c(C(=O)Nc2ccc3[nH]c(=O)cc(C(F)(F)F)c3c2)c1 [S32, 2-morpholino-N-[2-oxo-4-(trifluoromethyl)-1H-quinolin-6-yl]-5-sulfamoyl-benzamide] |
| > 10 µM | Cc1cc(O)nc2ccc(NC(=O)c3cc(S(=O)(=O)N(C)C)ccc3F)cc12 [S33, 5-(dimethylsulfamoyl)-2-fluoro-N-(2-hydroxy-4-methyl-6-quinolyl)benzamide] |
| > 10 µM | Cc1cc(O)nc2ccc(NC(=O)c3cc(S(=O)(=O)N4CCOCC4)ccc3Br)cc12 [S34, 2-bromo-N-(2-hydroxy-4-methyl-6-quinolyl)-5-morpholinosulfonyl-benzamide] |
| < 0.2 µM | O=C(Nc1ccc2[nH]c(=O)cc(O)c2c1)c1cc(S(=O)(=O)N2CCOCC2)ccc1N1CCOCC1 [S35, N-(4-hydroxy-2-oxo-1H-quinolin-6-yl)-2-morpholino-5-morpholinosulfonyl-benzamide] |
| > 10 µM | Cc1cc(O)nc2ccc(NC(=O)c3cccc(S(=O)(=O)N4CCN(C)CC4)c3)cc12 [S36, N-(2-hydroxy-4-methyl-6-quinolyl)-3-(4-methylpiperazin-1-yl)sulfonyl-benzamide] |
| > 10 µM | CN(C)S(=O)(=O)c1ccc(N2CCOCC2)c(C(=O)Nc2ccc3[nH]c(=O)[nH]c(=O)c3c2)c1 [S37, 5-(dimethylsulfamoyl)-N-(2,4-dioxo-1H-quinazolin-6-yl)-2-morpholino-benzamide] |
| < 0.2 µM | CN1Cc2cc(NC(=O)c3cc(S(=O)(=O)N(C)C)ccc3N3CCOCC3)ccc2NC1=O [S39, 5-(dimethylsulfamoyl)-N-(3-methyl-2-oxo-1,4-dihydroquinazolin-6-yl)-2-morpholino-benzamide] |
| 0.5 to 1 µM | Cc1cc(O)nc2ccc(NC(=O)c3cc(S(=O)(=O)N(C)C)ccc3N3CCC(C)C3)cc12 (stereo not drawn) [S41, 5-(dimethylsulfamoyl)-N-(2-hydroxy-4-methyl-6-quinolyl)-2-(3-methylpyrrolidin-1-yl)benzamide] |
| < 0.2 µM | Cc1cc(O)nc2ccc(NC(=O)c3cc(S(=O)(=O)N(C)C)ccc3N3CCC(F)C3)cc12 (stereo not drawn) [S42, 5-(dimethylsulfamoyl)-2-(3-fluoropyrrolidin-1-yl)-N-(2-hydroxy-4-methyl-6-quinolyl)benzamide] |
| 0.5 to 1 µM | COC1CCN(c2ccc(S(=O)(=O)N(C)C)cc2C(=O)Nc2ccc3nc(O)cc(C)c3c2)C1 (stereo not drawn) [S43, 5-(dimethylsulfamoyl)-N-(2-hydroxy-4-methyl-6-quinolyl)-2-(3-methoxypyrrolidin-1-yl)benzamide] |
